# Data: patent US5543425A, “Method of inhibiting platelet aggregation using phenyl amidine thio derivatives” (G. D. Searle & Co., priority 1994, dated 1996)
# Tested on: platelet aggregation in dog PRP
# Assay: In-Vitro Platelet Aggregation in PRP (collagen-induced)
# Type: cell-based
# Conditions: Canis lupus familiaris; for inhibition at 10 µM: Test Concentration 1 × 10^-5 (10 μM), dog PRP, collagen 33.3 μg/m final; for IC50: dog platelet-rich plasma, collagen-induced aggregation
# Description: Compounds of the invention were evaluated by an in vitro assay to determine compound activity as an inhibitors of platelet aggregation.
# In-Vitro Platelet Aggregation in PRP
# Healthy male or female dogs were fasted for 8 hours prior to drawing blood; then 30 ml whole blood from jugular vein was collected using a butterfly needle and 30 ml plastic syringe with 3 ml of 0.129 M buffered sodium citrate (3.8%). The syringe was rotated carefully as blood was drawn to mix the citrate. The whole blood was transferred to a 50 ml Corning Conical sterile centrifuge tube. Platelet-rich plasma (PRP) was prepared by centrifugation at 975×g for 3.17 minutes at room temperature, allowing the centrifuge to coast to a stop without braking. The PRP was removed from the blood with a plastic pipette and placed in a plastic capped, 50 ml Corning conical sterile centrifuge tube which was held at room temperature. Platelet poor plasma (PPP) was prepared by centrifuging the remaining blood at 2000×g for 15 minutes at room temperature allowing the centrifuge to coast to a stop without braking. The PRP platelet count was typically a count of 2.5-4×10^8 platelets per ml. 400 μL of the PRP preparation and 50 μL of the compound to be tested or saline were preincubated for 2 minutes at 37° C. in a BioData aggregometer (BioData, Horsham, PA). 50 μL of Collagen (equine tendon, Chronolog, Hayertown, PA) [33.3 μg/m, final concentration] was added to the cuvettes and the aggregation was monitored for 4 minutes. All compounds are tested in duplicate. Inhibition of aggregation for each sample was determined using the formula: % of inhibition=100-% of control and % of control=(Tinh -Tbas)/(Tag -Tbas) ×100, where Tbas is % of light transmission in PRP (baseline), Tagg is % of light transmission in the aggregated PRP sample (saline control) and Tinh is % of light transmission in the sample containing the inhibitor.
Compound,inhibition at 10 µM,IC50
COc1ccc(S(=O)(=O)CC(CC(=O)O)NC(=O)CCCCc2ccc(C(=N)N)cc2)cc1 (racemic) [(±)-3-[[5-[4-(aminoiminomethyl)phenyl]-1-oxopentyl]amino]-4-[(4-methoxyphenyl)sulfonyl]butanoic acid],100%,130 nM
CCOC(=O)CC(CSc1ccccc1)NC(=O)CCCCc1ccc(C(=N)N)cc1 (racemic) [(±)-ethyl 3-[[5-[[4-(aminoiminomethyl)phenyl]-1-oxopentyl]amino]-4-(4-phenylthio) butanoate],0%,
CCOC(=O)CC(C[S+]([O-])c1ccccc1)NC(=O)CCCCc1ccc(C(=N)N)cc1 (racemic) [(±)-ethyl 3-[[5-[4-(aminoiminomethyl)phenyl]-1-oxopentyl]amino]-4-(4-phenylsulfinyl)butanoate],0%,
Cc1ccc(S(=O)(=O)CCNC(=O)CCCCc2ccc(C(=N)N)cc2)cc1 [4-(aminoiminomethyl)-N-[2-[(4-methylphenyl)sulfonyl]ethylbenzenepentanamide],23%,
N=C(N)c1ccc(CCCCC(=O)NC(CC(=O)O)C[S+]([O-])c2ccccc2)cc1 (racemic) [(±)-3-[[5-[4-(aminoiminomethyl)phenyl]-1-oxopentyl]amino]-4-[(phenylsulfinyl)butanoic acid],100%,200 nM
C[S+]([O-])CCC(CC(=O)O)NC(=O)CCCCc1ccc(C(=N)N)cc1 (racemic) [(±)-3-[[5-[4-(aminoiminomethyl)phenyl]-1-oxopentyl]amino]-5-(methylsulfinyl) pentanoic acid],100%,1500 nM
CC(C)OC(=O)CC(CS(=O)(=O)c1ccccn1)NC(=O)CCCCc1ccc(C(=N)N)cc1 (stereo not drawn) [1-methylethyl 3S-[[5-[4-(aminoiminomethyl)phenyl]-1-oxopentyl]amino]-4-(2-pyridinylsulfonyl)butanoate],28%,
CS(=O)(=O)CCC(CC(=O)O)NC(=O)CCCCc1ccc(C(=N)N)cc1 (racemic) [(±)-3-[[5-[4-(aminoiminomethyl)phenyl]-1-oxopentyl]amino]-5-(methylsulfonyl)pentanoic acid],100%,700 nM
N=C(N)c1ccc(CCCCC(=O)NC(CSc2ccc(F)cc2)CC(=O)O)cc1 (racemic) [(±)-3-[[5-[4-(aminoiminomethyl)phenyl]-1-oxopentyl]amino]-4-[(4-fluorophenyl)thio]butanoic acid],100%,1800 nM
CCOC(=O)CC(CS(=O)(=O)c1ccccc1)NC(=O)CCCCc1ccc(C(=N)N)cc1 (racemic) [(±)-ethyl 3-[[5-[4-(aminoiminomethyl)phenyl]-1-oxopentyl]amino]-4-(phenylsulfonyl)butanoate],3%,
N=C(N)c1ccc(CCCCC(=O)NC(CCS(=O)(=O)Cc2ccccc2)CC(=O)O)cc1 (racemic) [(±)-3-[[5-[4-(aminoiminomethyl)phenyl]-1-oxopentyl]amino]-5[(phenylmethyl)sulfonyl]pentanoic acid],100%,220 nM
N=C(N)c1ccc(CCCCC(=O)NC(CC[S+]([O-])Cc2ccccc2)CC(=O)O)cc1 (racemic) [(±)-3-[[5-[4-(aminoiminomethyl)phenyl]-1-oxopentyl]amino]-5-[(phenylmethyl)sulfinyl]pentanoic acid],100%,100 nM
N=C(N)c1ccc(CCCCC(=O)NC(CSc2ccccc2)CC(=O)O)cc1 (racemic) [(±)-3-[[5-[4-(aminoiminomethyl)phenyl]-1-oxopentyl]amino]-4-(phenylthio) butanoic acid],100%,500 nM
N=C(N)c1ccc(CCCCC(=O)NC(CC(=O)O)CS(=O)(=O)c2ccccc2)cc1 (racemic) [(±)-3-[[5-[4-(aminoiminomethyl)phenyl]-1-oxopentyl]amino]-4-(phenylsulfonyl)butanoic acid],100%,28 nM
N=C(N)c1ccc(CCCCC(=O)NC(CC(=O)O)CS(=O)(=O)c2ccc(F)cc2)cc1 (racemic) [(±)-3-[[5-[4-(aminoiminomethyl)phenyl]-1-oxopentyl]amino]-4-[[(4-fluorophenyl)]sulfonyl]butanoic acid],100%,120 nM
CCOC(=O)CC(CC[S+]([O-])Cc1ccccc1)NC(=O)CCCCc1ccc(C(=N)N)cc1 (racemic) [(+)-ethyl 3-[[5-[4-aminoiminomethyl)phenyl]-1-oxopentyl]amino]-5-[(phenylmethyl)sulfinyl]pentanoate],100%,420 nM
Cc1ccc([S+]([O-])CCNC(=O)CCCCc2ccc(C(=N)N)cc2)cc1 (centres unmarked) [4-(aminoiminomethyl)-N-[2-[(4-methylphenyl)sulfinyl]ethylbenzenepentanamide],0%,
Cc1ccc(S(=O)(=O)CC(CC(=O)O)NC(=O)CCCCc2ccc(C(=N)N)cc2)cc1 (racemic) [(+)-3-[[5-[4-(aminoiminomethyl)phenyl]-1-oxopentyl]amino]-4-[[(4-methylphenyl)sulfonyl]butanoic acid],100%,
N=C(N)c1ccc(CCCCC(=O)NC(CC(=O)O)CS(=O)(=O)c2ccccn2)cc1 (racemic) [(±)-3-[[5-[4-(aminoiminomethyl)phenyl]-1-oxopentyl]amino]-4-(2-pyridinylsulfonyl)butanoic acid],100%,
CSCCC(CC(=O)O)NC(=O)CCCCc1ccc(C(=N)N)cc1 (racemic) [(±)-3-[[5-[4-(aminoiminomethyl)phenyl]-1-oxopentyl]amino]-5-(methylthio) pentanoic acid],100%,1300 nM
